Measurements published in patent publication US20220062299A1, “USE OF GLUCOCORTICOID STEROIDS IN PREVENTING AND TREATING CONDITIONS OF MUSCLE WASTING, AGING AND METABOLIC DISORDER” (NORTHWESTERN UNIVERSITY, priority 2018, published 2022).

Tests used:
[1] = test system: mdx; Dysf-null; Sgcg-null mice; assay: Once-weekly glucocorticoids in three murine models of muscle disease; assay type: in vivo, mouse; conditions: 1 mg/kg once-weekly, contrary to daily dosing
From the text: Glucocorticoid steroids are widely prescribed drugs for chronic inflammatory conditions, and their daily intake generally correlates with muscle wasting and weakness, osteoporosis, obesity and metabolic disorders. […] (Quattrocelli et al, J Clin Invest 2017; Quattrocelli et al, Am J Pathol 2017; Quattrocelli et al., JCI Insight. 2019 Dec. 19; 4(24). pii: 132402. doi: 10.1172/jci.insight.132402).

[2] = test system: Klf15, Mef2C, Foxo3 loci in mdx muscle; assay: H3K27ac ChIP-seq on myofibers integrated with RNA-seq of mdx muscle; assay type: in vivo, mouse
Protocol: H3K27ac ChIP-seq on muscle myofibers. Freshly-isolated whole quadriceps muscles (both per mouse) were finely minced and digested in 10 ml/muscle of PBS supplemented with 1 mM CaCl2 and 100 U/ml collagenase II (Cat #17101, Life Technologies, Grand Island, N.Y.) at 37° C. for 1 hour with shaking. The suspension was then filtered through a 40 μm strainer (Cat #22363547, Fisher Scientific, Waltham, Mass.) and the unfiltered fraction (enriched in myofibers) was kept for further steps. Separation of mononuclear fraction in the filtered fraction was confirmed at the microscope. Myofibers were fixed in 10 ml 1% PFA for 30 minutes at room temperature with gentle nutation. Fixation was quenched 1 ml of 1.375M glycine (Cat #BP381-5, Fisher Scientific, Waltham, Mass.) with gentle nutation for 5 minutes at room temperature. After centrifugation at 3000 g for 5 minutes, myofibers were lysed in 1.4 ml lysis buffer with approximately 25 μl 2.3 mm zirconia/silica beads (Cat #11079125z, BioSpec, Bartlesville, Okla.). Lysis buffer consisted of 10 mM HEPES (pH 7.3; Cat #H3375), 10 mM KCl (Cat #P9541), 5 mM MgCl2 (Cat #M8266), 0.5 mM DTT (Cat #646563), 3 μg/ml cytochalasin B (C6762; all reagents from Sigma, St. Louis, Mo.); protease inhibitor cocktail (Cat #11852700, Roche, Mannheim, Germany)). Myofibers were them homogenized by means of Mini-BeadBeater-16 (Cat #607, Biospec, Bartlesville, Okla.) for 30 sec, then by rotating at 4° C. for 30 minutes. […] DNA was purified using the MinElute purification kit (cat #28004; Qiagen, Hilden, Germany), quantitated using Qubit reader and reagents. Library preparation and sequencing were conducted at the NU Genomics Core, using TrueSeq ChiP-seq library prep (with size exclusion) on 5 ng chromatin per ChIP sample or pooled input, and HiSeq 50 bp single-read sequencing (approximately 60 million read coverage per sample). […]

C[C@]12C=CC(=O)C=C1CC[C@@H]1[C@@H]2C(=O)C[C@@]2(C)[C@H]1CC[C@]2(O)C(=O)CO [prednisone, Prednisone]
muscle force and mass [1]: improved | Foxo3 and other muscle atrophy factors ([2]; daily prednisone): upregulation | levels of Klf15 and Mef2C ([2]; daily prednisone): reduced | H3K27ac marks and transcription of Klf15 and Mef2C ([2]; weekly prednisone): increased
